Tests used:
Type in all cases: physicochemical
[1] = Storage stability of temozolomide in type 3 packaging, purity by HPLC (Example 3); details: for Initial purity, % by HPLC: before starting the storage period; for Initial purity, % by HPLC / Purity, % by HPLC after 1 month of storage / Purity, % by HPLC after 2 months of storage / Purity, % by HPLC after 6 month of storage: % area; for Purity, % by HPLC after 1 month of storage / Purity, % by HPLC after 2 months of storage / Purity, % by HPLC after 6 month of storage: warehouse conditions; for Purity, % by HPLC after 6 month of storage: 6 months
Protocol: Analytical measurements of the temozolomide samples were performed using an HPLC system equipped with Phenomenex Synergi™ Fusion-RP C18 column, 250×4.6 mm, and a UV detector operated on 250 nm. Analyses were performed using the following mobile phase, at flow rate of 1.0 ml/minute: Mobile phase: 90% Solution A: 0.02M potassium dihydrogen phosphate buffer (pH 3); 10% Solution B: acetonitrile.
Three different samples of temozolomide were stored at warehouse conditions in a type 3 packaging. A small quantity was taken from each sample after 1, 2 and 6 months and the purity was checked by HPLC and compared to the original HPLC chromatogram of each sample (before starting the storage period). The purity of each sample was obtained as % area by the HPLC chromatogram and compared to the initial purity value (before starting the storage period).

[2] = Colour stability of temozolomide in different drug packaging at warehouse conditions (Example 2)
Source text: Exemplary packaging, which can be used in the storage system of the present invention, can include, e.g., packaging type 1, packaging type 2 and/or packaging type 3. When packaging type 1 is used, the temozolomide is preferably contained (e.g., packed or packaged) in a sealed transparent polymeric bag (e.g., a sealed polyethylene bag). When packaging type 2 is used, the temozolomide is preferably contained (e.g., packed or packaged) in a sealed transparent polymeric bag (e.g., a sealed polyethylene bag), which is inserted into another opaque (e.g., black) polymeric bag (e.g., a black polyethylene bag), which is then sealed effectively to prevent penetration of humidity, oxygen and/or light. When packaging type 3 is used, the temozolomide is preferably contained (e.g., packaged or packed) in a sealed transparent polymeric bag (e.g., a sealed polyethylene bag), which is inserted in an opaque (e.g., black) polymeric bag (e.g., a black polyethylene bag), which is then sealed and, in turn, put inside a sealed laminated aluminum bag, which is then sealed. For packaging type 2 and packaging type 3, a desiccant can be interposed (e.g., dispersed) between the two plastic layers (e.g., between the transparent and opaque polymeric bags).
Exemplary packaging for the storage system of the present invention can include packaging type 1, wherein temozolomide is packed and sealed in a transparent polyethylene bag. Exemplary packaging for the storage system of the present invention also can include packaging type 2, wherein temozolomide is packed and sealed in a transparent polyethylene bag, which is inserted into an opaque (e.g., black) polyethylene bag, which is then sealed, wherein the packaging is sealed effectively to prevent penetration of humidity and/or oxygen. Exemplary packaging for the storage system of the present invention also can include packaging type 3, wherein temozolomide is packed and sealed in a transparent polyethylene bag, which is packed in an opaque (e.g., black) polyethylene bag, which is then sealed and, in turn, packed and sealed in a laminated aluminum bag, which is then sealed. In packaging type 2 and in packaging type 3, a desiccant optionally can be interposed (e.g., dispersed) between the two polymeric bags/layers. In accordance with the present invention, each packaging, e.g., packaging type 1, type 2, and/or type 3 as described herein, can be packed under an inert atmosphere (e.g., under a nitrogen atmosphere) or in ambient air. In a preferred embodiment, the storage system of the present invention includes a type 3 packaging with a silica gel desiccant, wherein the packaging is optionally packed and sealed under a nitrogen atmosphere. An exemplary type 3 packaging is described in Example 2, which describes a type 3 packaging containing a silica gel desiccant, optionally under nitrogen atmosphere, which is effective in maintaining the temozolomide white color for long storage periods. […]

[3] = Effect of relative humidity on temozolomide stability, visual colour test in open glass vessel (Example 4)
Protocol: Three samples of temozolomide were stored in an open glass vessel at different relative humidity (RH) conditions for storage periods of up to 3 weeks, after which time the color changes were evaluated.

| SMILES | Initial purity, % by HPLC [1] [%] | Purity, % by HPLC after 1 month of storage ([1]; type 3 packaging) [%] | Purity, % by HPLC after 2 months of storage ([1]; type 3 packaging) [%] | Purity, % by HPLC after 6 month of storage ([1]; type 3 packaging) [%] | Rate of decomposition on storage ([1]; type 3 packaging, wet sample (water about 1.8%) vs dry samples 3417 and 3034 (water less than 0.1%, KF)) | Color ([2]; Type 1 at ambient air, storage period 6 weeks, warehouse conditions, initially white) | Color ([2]; Type 3 - the inner bag of entry 2 was left out (sealed) for two more weeks, 6 weeks) | Color ([2]; Type 3 at ambient air containing a desiccant in the inner packaging, 4 weeks, warehouse conditions) | Color ([2]; Type 3 at ambient air containing a desiccant in the inner packaging, 10 weeks, warehouse conditions) | Color ([2]; Type 3 under nitrogen containing a desiccant in the inner packaging, 6 weeks, warehouse conditions) | Color ([2]; Type 3 under nitrogen without desiccant in the inner packaging, 8 weeks, warehouse conditions) | Result of visual test ([3]; RH 20%, 3 weeks) | Result of visual test ([3]; RH 80%, 4 days) |
| --- | --- | --- | --- | --- | --- | --- | --- | --- | --- | --- | --- | --- | --- |
| Cn1nnc2c(C(N)=O)ncn2c1=O [Sample 519, temozolomide] | 97.9 | 97.3 | 97.3 | 96.2 | appeared to decompose at a faster rate than the dry samples | – | – | – | – | – | – | – | – |
| Cn1nnc2c(C(N)=O)ncn2c1=O [Sample 3034, temozolomide] | 99.8 | 99.7 | 99.8 | 99.8 | – | – | – | – | – | – | – | – | – |
| Cn1nnc2c(C(N)=O)ncn2c1=O [Sample 3417, temozolomide] | 99.7 | 99.8 | 99.9 | 99.7 | – | – | – | – | – | – | – | – | – |
| Cn1nnc2c(C(N)=O)ncn2c1=O [temozolomide, 8-carbamoyl-3-methyl-imidazo[5,1-d]-1,2,3,5-tetrazin-4(3H)-one] | – | – | – | – | – | pinkish | pinkish | white | white | white | pinkish | White | pink color |

Source: US20060222792A1, “Temozolomide storage system” (CHEMAGIS LTD., priority 2006, published 2006)
